In patent US20060135624A1, “Natural compound useful for treating diabetes, its preparation and use” (JINGYU LIANG ET AL, priority 2002, published 2006):

Experiments:
[1] = system: rat hyperglycemia induced by alloxan; assay: Effect of Sequoyitol on rat hyperglycemia induced by alloxan; format: in vivo, SD rats
Protocol: 1. Experimental Methods^[5,6] • 5 Rats were randomly selected as normal group, the other 55 rats were fasted for 14-16 hours, administrated with 30 mg/kg of Pentobarbital by intra-abdominal injection. After paralyzed, the rats were administrated with 48 mg/kg of alloxan by vena femoralis injection, modeled according to methods of documents, and divided into 5 groups according to blood-sugar level, wherein each group had 11 rats, and 4 groups were orally administrated with 25, 50 and 100 mg/kg of Sequoyitol and 75 mg/kg of phenformine according to 1 ml/100 g of body weight, respectively, and the normal group and modeling group were administrated with the same volum of distilled water. These administrations were conducted for continuous 18 days. The fasting blood-sugar levels of the rats were separately measured at 6th and 12th day after the administration. At the 18th day, blood was collected from arteria femoralis, and the blood sugar level, insulin level, cholesterol content, triglyceride content, malonaldehyde content, and hepatocuprein activity of serum were measured; liver tissue was homogenated, and the malonaldehyde content, and hepatocuprein activity of liver tissue were measured; and pancreatic gland was soaked in 10% formalin, embedded with paraffin, sliced, and dyed with HE.

[2] = system: mouse hyperglycemia induced by Streptozocin; assay: Effect of Sequoyitol on mouse hyperglycemia induced by Streptozocin; format: in vivo, Kunming mice
Protocol: 1. Experimental Methods^[7,8] • Among 66 mice, 10 mice were randomly selected as normal group, and the residual mice were administrated with 160 mg/kg Streptozocin by vena caudalis injection, modeled according to methods of documents, and divided into 5 groups according to blood-sugar level, wherein 4 groups were perorally administrated with 25, 50 and 100 mg/kg of Sequoyitol and 75 mg/kg of phenformine according to 0.1 ml/10 g of body weight, respectively, and the normal group and modeling group were administrated with the same volum of distilled water. These administrations were conducted for continuous 18 days. The blood-sugar levels of the mice were separately measured at 6th and 12th day after the administration. At the 18th day, blood was collected by excising eyeballs, serum was separated, and the blood sugar level, insulin level, cholesterol content, triglyceride content, malonaldehyde content, and hepatocuprein activity of serum were measured; liver tissue was homogenated, and the malonaldehyde content and hepatocuprein activity of liver tissue were measured; and pancreatic gland was soaked in 10% formalin, embedded with paraffin, sliced, and dyed with HE.

[3] = 50 and 100 mg/kg Sequoyitol groups, oral 18 days
[4] = Sequoyitol 50 mg/kg oral 18 days
[5] = Sequoyitol 100 mg/kg oral 18 days
[6] = 25 and 50 mg/kg Sequoyitol groups, p.o. 18 days
[7] = Sequoyitol 100 mg/kg p.o. 18 days
[8] = Sequoyitol groups (25, 50, 100 mg/kg p.o. 18 days)

COC1C(O)C(O)C(O)C(O)C1O (centres unmarked) [Sequoyitol, 5-O-methyl-myo-inositol]
hyalinization of interstitial small vessels (histopathologic examination) [1, 3]: alleviated | inflammatory cell infiltration (histopathologic examination) [1, 3]: reduced | body weight of diabetes rats compared to the control group ([1]; 50 and 100 mg/kg Sequoyitol groups, oral, since the 15th day (increased at the 13th day)): significantly increased | serum insulin level increased compared to the control group ([1]; Sequoyitol 25 mg/kg oral 18 days): 1.01 μlU/ml | alloxan-induced hyperglycemia compared to the control group ([1]; Sequoyitol 25 mg/kg oral, 12th day): significantly alleviated | blood-sugar level decreased compared to the control group ([1]; Sequoyitol 25 mg/kg oral, 18th day): 194.4 mg/dL | body weight of diabetes rats compared to the control group ([1]; Sequoyitol 25 mg/kg oral, at the 17th day (increased at the 15th day)): significantly increased | content of cholesterol in serum decreased compared to the control group [1, 4]: 22.2 mg/dL | content of triglyceride in serum decreased compared to the control group [1, 4]: 15.7 mg/dL | serum insulin level increased compared to the control group [1, 4]: 1.45 μl U/ml | blood-sugar level decreased compared to the control group ([1]; Sequoyitol 50 mg/kg oral, 6th day): 129.1 mg/dL | blood-sugar level decreased compared to the control group ([1]; Sequoyitol 50 mg/kg oral, 12th day): 200.7 mg/dL | blood-sugar level decreased compared to the control group ([1]; Sequoyitol 50 mg/kg oral, 18th day): 223.1 mg/dL | activity of hepatocuprein in liver tissue increased compared to the control group [1, 5]: 18.3 NU/mg prot | activity of hepatocuprein in serum increased compared to the control group [1, 5]: 55.0 NU/ml | content of malonaldehyde in liver tissue decreased compared to the control group [1, 5]: 4.29 nmol/mg prot | content of malonaldehyde in serum decreased compared to the control group [1, 5]: 4.13 nmol/dL | serum insulin level increased compared to the control group [1, 5]: 3.36 μlU/ml | blood-sugar level decreased compared to the control group ([1]; Sequoyitol 100 mg/kg oral, 6th day): 120 mg/dL | blood-sugar level decreased compared to the control group ([1]; Sequoyitol 100 mg/kg oral, 12th day): 218.2 mg/dL | blood-sugar level decreased compared to the control group ([1]; Sequoyitol 100 mg/kg oral, 18th day): 240.3 mg/dL | number of pancreatic islands and number of cells in pancreatic islands (histopathologic examination) compared to the model group ([1]; Sequoyitol groups (25, 50, 100 mg/kg oral 18 days)): increased significantly | content of cholesterol in serum compared to the control group [2, 6]: decreased | content of malonaldehyde in liver tissue compared to the control group [2, 6]: significantly decreased | content of triglyceride in serum compared to the control group [2, 6]: significantly decreased | serum insulin level compared to the control group ([2]; 50 and 100 mg/kg Sequoyitol groups, p.o. 18 days): significantly increased | body weight of diabetes mice compared to the control group ([2]; 50 and 100 mg/kg Sequoyitol groups, p.o., since the 7th day): significantly increased | serum insulin level compared to the control group ([2]; Sequoyitol 25 mg/kg p.o. 18 days): increased | body weight of diabetes mice compared to the control group ([2]; Sequoyitol 25 mg/kg p.o., since the 11th day): increased | blood-sugar level decreased compared to the control group ([2]; Sequoyitol 50 mg/kg p.o., 12th day): 121.4 mg/dL | content of cholesterol in serum compared to the control group [2, 7]: significantly decreased | content of malonaldehyde in liver tissue compared to the control group [2, 7]: highly significantly decreased | content of triglyceride in serum compared to the control group [2, 7]: highly significantly decreased | hyalinization of interstitial small vessels (histopathologic examination) [2, 7]: alleviated | serum insulin level increased compared to the control group [2, 7]: 6.53 μlU/ml | activity of hepatocuprein in serum compared to the control group [2, 8]: highly significantly increased | inflammatory cell infiltration (histopathologic examination) [2, 8]: inhibited | number of pancreatic islands and number of cells in pancreatic islands (histopathologic examination) compared to the model group [2, 8]: increased significantly
